{"source": "patent US20240018125A1", "about": "“CYCLIC ISOTHIOUREA DERIVATIVES AS CXCR4 MODULATORS” (ERMIUM THERAPEUTICS, priority 2020, published 2024)", "key": {"[1]": {"target": "T1, Recombinant CXCR4 receptor (Homo sapiens, UniProt P61073)", "T1 construct": "host or cells: HEK-293 T cells", "T1 sequence (P61073 whole entry)": "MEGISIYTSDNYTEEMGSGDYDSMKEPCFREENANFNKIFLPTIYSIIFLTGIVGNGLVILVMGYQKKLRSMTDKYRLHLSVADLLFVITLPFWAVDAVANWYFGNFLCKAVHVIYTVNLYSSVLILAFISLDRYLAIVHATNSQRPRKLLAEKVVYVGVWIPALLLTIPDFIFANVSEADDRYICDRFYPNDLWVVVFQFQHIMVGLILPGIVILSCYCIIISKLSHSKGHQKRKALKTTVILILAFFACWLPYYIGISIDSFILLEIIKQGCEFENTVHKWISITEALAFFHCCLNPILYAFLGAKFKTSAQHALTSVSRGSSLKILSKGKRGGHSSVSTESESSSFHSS", "experiment": "G.Validation fluorescence assay of CXCR4 receptor conformational changes in lipidic micelles SB2L4 and SB3L1", "format": "biochemical", "details": "ligand 150 μM over basal state, 5 μM labelled CXCR4, 40 min", "description": "G.Validation® assay is […] biotech proprietary fluorescence based assay that assesses conformational changes of a receptor upon activation/inactivation. Recombinant CXCR4 receptor is produced and purified from HEK-293 T cells using […] proprietary mixes. Receptor is then reconstituted in detergent buffers containing lipids mimicking the lipidic composition of dendritic cells (DC) and macrophages (SB2L4 and SB3L1). Thereafter, the receptor is labelled with a non-modifying probe allowing the detection of the activation state and conformational change of the receptor upon addition of a ligand. Indeed, the probe emission spectra maximum wavelength (Amax) shifts according to activation/inactivation of the receptor. Thus, kinetic of activation/inactivation of the receptor can be followed by monitoring Amax shift after addition of a ligand over time. Emission spectra were registered for 40 minutes after addition of each ligand. […] Activation/inactivation kinetics were also followed using an exemplary compound of formula (I), i.e."}, "Male C57BL/6 Rj mice": {"test_system": "Male C57BL/6 Rj mice", "experiment": "In vivo evaluation of CXCR4 antagonistic activity by mobilisation of blood cells", "set-up": "species or system mouse", "details": "30 mg/kg single i.p., 2:30 h after injection; shown also for neutrophils, monocytes, lymphocytes, eosinophils", "description": "Male C57BL/6 Rj mice (7 weeks old) were obtained from Janvier (Le Genest-Saint-Isle, France). Mice were treated by a single intraperitoneal (i.p.) administration at timepoint 0 h. The experimental groups (n=10) were defined as follows: • Mice of group 1 were treated with vehicle only (0.9% NaCl aqueous solution) • Mice of group 2 were treated with AMD3100 (CXCR4 antagonist, Sigma-Aldrich, St Louis, USA) at 20 mg/kg (volume of 10 mL/kg) in 0.9% NaCl aqueous solution • Mice of group 3 were treated with an exemplary compound of formula (I), i.e. Example 60, at 30 mg/kg (volume of 10 mL/kg) in 0.9% NaCl aqueous solution\nAfter 2:30 h, whole blood (at least 200 μl, max 1 mL) was collected in EDTA tubes before sacrifice by an intracardiac puncture under isoflurane anaesthesia and haematology parameters were determined the same day by laser flow cytometry, optical fluorescence and Laminar Flow Impedance™ using the ProCyte Dx hematology analyser (IDEXX, Eau Claire, USA). Differential leukocyte counts were performed to quantify specific immune cell types. Data are reported as total number of cells (K/μL), mean±S.E.M., as well as the statistical significance versus the vehicle control group using unpaired t-tests."}, "[2]": {"test_system": "irrelevant G-protein coupled receptor (GPCR)", "experiment": "G.Validation fluorescence assay on irrelevant GPCR control", "format": "biochemical", "details": "SDF1α 15 μM, AMD3100 100 μM, Example 60 150 μM; SB3L1"}, "[3]": {"test_system": "peripheral blood mononuclear cells (PBMCs) from healthy donors", "experiment": "IFN production by R848-activated PBMCs, quantified with twINNE luciferase reporter cell line", "format": "cell-based, human", "details": "Homo sapiens, PBMC; read-out: IC50 of anti-inflammatory activity (IFN production by activated PBMCs)", "in_short": "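Functional IFN was quantified by luciferase output from the twINNE ISRE-reporter line after 24 h on conditioned supernatants. Those supernatants came from human PBMCs (4.10^6/mL) pre-treated with compound and then stimulated for 24 h with 5 μg/mL resiquimod. IC50s were fitted by nonlinear variable-slope regression.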"}, "[4]": {"test_system": "Female Balb/c mice, pristane-induced lupus", "experiment": "In vivo pristane-induced lupus mouse model, anti-dsDNA antibody titers in serum by ELISA", "description": "Female Balb/c mice (6 to 8 weeks, ENVIGO, Indianapolis, USA) received a single i.p. injection with 0.5 mL of pristane (Sigma-Aldrich, St Louis, USA) to induce a lupus-like disease. That same day, once daily treatment was started (10 mL/kg), either with vehicle control (PBS) i.p., with prednisolone (Sigma-Aldrich, St Louis, USA) in PBS p.o. at a dose of 15 mg/kg (positive control), or with an exemplary compound of formula (I), i.e. Example 60, at a dose of either 3 mg/kg, 10 mg/kg or 30 mg/kg in PBS i.p. After 4, 6 and 8 weeks of dosing, sample bleeds for each mouse were collected via the orbital sinus, and immediately cold processed to sera and stored (50 μl) at −80° C. until analysis. In serum, anti-dsDNA antibody titers are determined using ELISA. Optical density was measured at 450 nm (OD450) using a microplate reader. Data are reported as anti-dsDNA Ab titers (OD), mean±S.E.M. as well as the statistical significance versus pristane-induced vehicle treated group using t-tests."}, "[5]": {"test_system": "129S8 mice infected with influenza A virus H3 N2 (X31)", "experiment": "In vivo immunomodulating effect (type 1 IFNs in BALF) in acute influenza inflammation model", "set-up": "species or system mouse", "details": "[…]; even lower than after ibuprofen"}}, "note": "Counter-ions that a name gives are not always drawn.", "data": [{"smiles": "Clc1ccc2c(c1)CN=C(SCCCCN1CCCC1)N2", "note": "[Example 60, 6-chloro-2-((4-(pyrrolidin-1-yl)butyl)thio)-1,4-dihydroquinazoline dihydrochloride]", "values": [{"measurement": "CXCR4 structural activation/inactivation, Amax shift in fluorescence", "setting": "[1]", "result": "blue shift"}, {"measurement": "numbers of white blood cells in the blood vs vehicle control", "setting": "Male C57BL/6 Rj mice", "result": "not increased"}, {"measurement": "irrelevant GPCR activation state, Amax shift in fluorescence", "setting": "[2]", "result": "Neither benchmark ligands SDF1α and AMD3100, nor Example 60 showed any effect"}, {"measurement": "IC50", "setting": "[3]", "result": "≤ 10", "unit": "µM"}, {"measurement": "anti-dsDNA Ab titers in serum vs vehicle-treated pristane-induced mice", "setting": "[4]; 3 mg/kg i.p. once daily, week 4", "result": "reduced"}, {"measurement": "anti-dsDNA Ab titers in serum vs vehicle-treated pristane-induced mice", "setting": "[4]; 10 mg/kg i.p. once daily, week 4", "result": "reduced"}, {"measurement": "anti-dsDNA Ab titers in serum vs vehicle-treated pristane-induced mice", "setting": "[4]; 10 mg/kg i.p. once daily, week 8, same range as prednisolone", "result": "significantly decreased"}, {"measurement": "anti-dsDNA Ab titers in serum vs vehicle-treated pristane-induced mice", "setting": "[4]; 30 mg/kg i.p. once daily, week 4", "result": "reduced"}, {"measurement": "anti-dsDNA Ab titers in serum vs vehicle-treated pristane-induced mice", "setting": "[4]; 30 mg/kg i.p. once daily, week 6", "result": "significantly lower"}, {"measurement": "anti-dsDNA Ab titers in serum vs vehicle-treated pristane-induced mice", "setting": "[4]; 30 mg/kg i.p. once daily, week 8, same range as prednisolone", "result": "significantly decreased"}, {"measurement": "concentration of IFNα in BALF vs vehicle-treated infected mice", "setting": "[5]", "result": "significantly decreased"}, {"measurement": "concentration of IFNβ in BALF vs vehicle-treated infected mice", "setting": "[5]", "result": "significantly decreased"}, {"measurement": "concentration of IFNλ2/3 in BALF vs vehicle-treated infected mice", "setting": "[5]", "result": "significantly decreased"}]}]}
